Structures are written as SMILES.

Data on 2 molecules can be found in patent publication US20110166196A1, “TREATMENT AND PROPHYLAXIS OF EPILEPSY AND FEBRILE SEIZURES” (priority 2008, published 2011).

Assay [1] has as its target T1, TRPV1 receptors (Rattus norvegicus, UniProt O35433).
T1 construct: inward currents were elicited in both CA3 and CA1 pyramidal cells; from tissue; host or cells: acute coronal hippocampal slices: CA1 and CA3 pyramidal cells and CA1 stratum radiatum interneurons
Description: Capsaicin-evoked inward current (peak change in holding current) in hippocampal neurons. Type of assay: cell-based. How it is done: (§1) Slices were continuously perfused with ACSF warmed to 28-32° C. at a flow rate of 1-2 ml/min. Picrotoxin (100 μM) and D-AP5 (50 μM) were added to block GABAA receptor- and NMDAR-mediated synaptic transmission. Whole-cell patch clamp recordings were made from interneurons identified visually in the CA1 stratum radiatum of the hippocampus. […] Patch pipettes were filled with internal recording solution containing in mM: 117 cesium gluconate, 2.8 NaCl, 5 MgCl2, 20 HEPES, 2 ATP-Na^+, 0.3 GTP-Na^+ and 0.6 EGTA. In some experiments 2 μM capsazepine, 140 nM baicalein, or 250 μM GDPβS were also included in the intracellular patch pipette solution. In experiments with BAPTA-containing patch electrodes, EGTA was omitted from the intracellular solution and 25 or 40 mM BAPTA replaced a corresponding amount of cesium gluconate. EPSCs were stimulated at 0.1 Hz (100 μsec) using a bipolar stainless steel stimulating electrode placed in stratum radiatum at least 200 μm from the recorded cell. CA1 interneurons were voltage clamped at −65 mV (not corrected for the liquid junction potential, of ˜10 mV), and EPSCs were evoked by paired pulses with an interval of 50 msec (stimulus intensity typically 50-400 μA). In early experiments, we measured rectification ratios of EPSCs evoked at +40 mV/−60 mV in the presence of 50 μM D-AP5, measured at the time of peak inward synaptic current seen at −70 mV (Lei and McBain, 2004).
The maximal initial slope of fEPSPs was calculated using a LabVIEW-based program (National Instruments). The peak amplitude of each EPSC was measured by comparing a 10 msec time period immediately prior to the stimulus with the peak of the EPSC using this program as well. Occasionally polysynaptic responses were evoked, and in these cases, only the initial monosynaptic event was measured. To positively identify LTD, EPSCs measured every 10 seconds were averaged in 1 minute intervals. EPSC amplitude values were normalized to control pre-HFS EPSC amplitude values (baseline period of at least 5 minutes prior to HFS) and subjected to analysis of variance (ANOVA) repeated measures analysis with a post-hoc Dunnett's test (GraphPad Prism, Version 4). […] EPSC amplitude values 15 to 20 minutes post-HFS were compared between control LTD experiments and those carried out either in transgenic TRPV1^−/− mice, or in the presence of drug using a t-test (unpaired, two-tailed, with Welch's correction if the variances between the groups were unequal). To calculate the effects of capsaicin, 12-(S)-HPETE or WIN 55,212-2 application on basal excitatory glutamatergic transmission, normalized EPSC amplitudes or fEPSP slopes were averaged in the final 5 minutes of drug application and compared with EPSCs/EPSPs 5 minutes prior to drug application. […] The n-values reported refer to the number of slices. All combined data are expressed as mean±the standard error of the mean (s.e.m.).

In assay [2] the test system is excitatory synapses onto CA1 hippocampal interneurons. The experiment in a line: HFS-induced long-term depression (LTD) of EPSCs, whole-cell recording in hippocampal slices. It is filed as cell-based, rat.
Text: (§2) The basic methods have been detailed previously (McMahon and Kauer, 1997). Sprague-Dawley rats (15-22 days old) were used in the majority of experiments. In addition, we used TRPV1^−/− mice (Caterina et al., 2000) and wild-type C57BL/6 mice aged between 15 and 21 days (Jackson Laboratory). The TRPV1^−/− mice we used have been backcrossed at least 10 times onto a C57BL/6 background and were obtained from homozygous breeding pairs. Control mice were therefore not littermates but were age-matched, wild-type C57BL/6 animals received from the same supplier in the same shipment. All animal protocols were approved by the Brown University Institutional Animal Care and Use Committee. For mouse experiments, only one brain slice per mouse was used for each experiment, so that reported ‘n’ numbers represent the number of animals. Animals were anaesthetized using halothane or isoflurane and quickly decapitated. The brain was rapidly removed and 300 μm thick coronal slices prepared and stored for at least one hour submerged on a net in artificial cerebrospinal fluid (ACSF) containing in mM: 119 NaCl, 26 NaHCO3, 2.5 KCl, 1.0 NaH2PO4, 2.5 CaCl2, 1.3 MgSO4 and 11 dextrose, saturated with 95% O2/5% CO2 (pH 7.4). Slices were then transferred to a submerged recording chamber and bathed in oxygenated ACSF (28-32° C.) containing elevated divalent cations to reduce epileptiform activity (4 mM CaCl2 and 4 mM MgCl2, replacing MgSO4). A surgical cut was made between the CA3 and CA1 regions. The storage of slices submerged on a net rather than in an interface chamber on filter paper may be important in maintaining slice health and improving the likelihood of observing LTD.
as §1
High-frequency stimulation was used to induce LTD (HFS; two 1 sec trains at 100 Hz, inter-train interval 20 sec, at 1.5 times test current intensity) with the neuron held in current-clamp mode, so that the HFS trains were delivered with the membrane potential free to vary. Receptor antagonists were added directly to the ACSF at known concentrations for at least 10 minutes prior to HFS. Control experiments were interleaved with those experiments using receptor antagonists or involving slices from TRPVl^−/− mice. The cell input resistance and series resistance were monitored throughout each experiment; cells were discarded if these values changed by more than 10% during the experiment.

For assay [3] the test system is unchanged. Description: Drug-induced depression of EPSC amplitudes, whole-cell recording in hippocampal slices. It is filed as cell-based, rat.
Text: as §2, §1
The maximal initial slope of fEPSPs was calculated using a LabVIEW-based program (National Instruments). The peak amplitude of each EPSC was measured by comparing a 10 msec time period immediately prior to the stimulus with the peak of the EPSC using this program as well. Occasionally polysynaptic responses were evoked, and in these cases, only the initial monosynaptic event was measured. To positively identify LTD, EPSCs measured every 10 seconds were averaged in 1 minute intervals. EPSC amplitude values were normalized to control pre-HFS EPSC amplitude values (baseline period of at least 5 minutes prior to HFS) and subjected to analysis of variance (ANOVA) repeated measures analysis with a post-hoc Dunnett's test (GraphPad Prism, Version 4).

Assay [4] concerns the target T2, TRPV1 channels (Mus musculus, UniProt Q704Y3).
T2 construct: whole-cell recordings from acutely prepared brain slices from wild type C57BL/6 mice; from tissue; host or cells: acute coronal hippocampal slices from P14-P20 wild-type C57BL/6 mice: CA1 pyramidal neurons
The experiment in a line: TRPV1 agonist-evoked inward current and depolarization in CA1 pyramidal neurons. It is filed as cell-based.

Assay [5] concerns excitatory synapses onto CA1 hippocampal interneurons. Description: Synaptic failure analysis using minimal stimulation. Type of assay: cell-based, rat. Particulars: capsaicin 1 μM; pre-capsaicin 38.4±3.5%; n=5. As to the method:
as §1, with “CA1 interneurons were voltage clamped at −65 mV (not corrected for the liquid junction potential, of ˜10 mV), and EPSCs were evoked by paired pulses with an interval of 50 msec (stimulus intensity typically 50-400 μA).” left out

The mark [6] stands for this setting: capsaicin 3 μM, capsazepine 10 μM, n=5.

T1 sequence (O35433 whole entry): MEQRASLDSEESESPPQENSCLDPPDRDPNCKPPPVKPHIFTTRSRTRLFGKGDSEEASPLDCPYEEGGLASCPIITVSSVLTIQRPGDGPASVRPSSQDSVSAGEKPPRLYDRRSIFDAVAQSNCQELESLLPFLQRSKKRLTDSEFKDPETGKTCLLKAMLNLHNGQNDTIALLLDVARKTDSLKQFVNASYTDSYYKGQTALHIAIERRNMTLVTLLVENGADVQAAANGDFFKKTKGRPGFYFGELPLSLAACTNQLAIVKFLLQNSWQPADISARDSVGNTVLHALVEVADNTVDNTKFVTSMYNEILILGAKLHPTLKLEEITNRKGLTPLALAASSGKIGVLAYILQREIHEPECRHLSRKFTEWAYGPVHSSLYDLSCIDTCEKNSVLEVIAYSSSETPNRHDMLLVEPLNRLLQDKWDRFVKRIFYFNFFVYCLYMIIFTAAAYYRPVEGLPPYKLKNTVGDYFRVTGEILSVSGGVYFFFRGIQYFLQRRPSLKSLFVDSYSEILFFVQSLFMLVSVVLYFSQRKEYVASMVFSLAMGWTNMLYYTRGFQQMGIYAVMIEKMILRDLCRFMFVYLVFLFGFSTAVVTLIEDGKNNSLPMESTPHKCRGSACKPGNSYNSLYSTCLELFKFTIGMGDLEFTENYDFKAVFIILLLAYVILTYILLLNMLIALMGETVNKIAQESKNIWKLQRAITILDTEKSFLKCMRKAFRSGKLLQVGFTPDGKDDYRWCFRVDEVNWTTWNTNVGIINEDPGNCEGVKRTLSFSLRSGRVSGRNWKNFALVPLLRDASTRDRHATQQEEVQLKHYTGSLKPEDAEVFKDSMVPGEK
T2 sequence (Q704Y3 whole entry): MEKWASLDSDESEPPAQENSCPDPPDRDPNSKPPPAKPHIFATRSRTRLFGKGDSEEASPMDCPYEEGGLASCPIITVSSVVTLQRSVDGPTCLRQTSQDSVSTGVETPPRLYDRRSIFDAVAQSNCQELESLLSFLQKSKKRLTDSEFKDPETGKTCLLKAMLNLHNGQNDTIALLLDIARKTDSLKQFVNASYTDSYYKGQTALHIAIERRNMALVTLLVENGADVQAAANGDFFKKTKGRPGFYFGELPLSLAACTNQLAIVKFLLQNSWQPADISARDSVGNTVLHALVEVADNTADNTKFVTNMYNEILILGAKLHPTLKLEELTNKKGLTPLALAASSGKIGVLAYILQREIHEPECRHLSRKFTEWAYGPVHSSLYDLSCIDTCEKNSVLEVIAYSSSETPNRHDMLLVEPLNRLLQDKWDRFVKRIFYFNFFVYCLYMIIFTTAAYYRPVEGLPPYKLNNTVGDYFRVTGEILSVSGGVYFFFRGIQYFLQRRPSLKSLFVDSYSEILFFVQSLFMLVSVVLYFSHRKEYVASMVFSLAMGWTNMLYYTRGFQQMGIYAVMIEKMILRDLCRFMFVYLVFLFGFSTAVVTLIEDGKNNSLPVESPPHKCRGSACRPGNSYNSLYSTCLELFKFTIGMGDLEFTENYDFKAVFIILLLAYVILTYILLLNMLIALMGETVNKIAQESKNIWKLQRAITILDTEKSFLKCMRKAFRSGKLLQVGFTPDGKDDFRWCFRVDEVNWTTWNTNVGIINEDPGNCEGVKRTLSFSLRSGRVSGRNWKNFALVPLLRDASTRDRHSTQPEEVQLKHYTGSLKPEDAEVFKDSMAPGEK

With `COc1cc(CNC(=O)CCCCC=CC(C)C)ccc1O` [capsaicin, 8-methyl-N-vanillyl-6-nonenamide], in assay [1] (1 μM capsaicin, P=0.78 vs pre-drug, n=5), the “1 μM capsaicin response in interneurons” value is listed as 0.7±0.3 pA. In addition, the “peak capsaicin response in CA3 pyramidal cells (inward current)” value in assay [1] (3 μM capsaicin bath application, n=5) was 180.1±48.0 pA. Also, in assay [1] (3 μM capsaicin bath application, n=7), the “peak capsaicin response in CA1 pyramidal cells (inward current)” value stood at 160.1±55.3 pA. Further, the “peak capsaicin response in interneurons (inward current)” value in assay [1] (3 μM capsaicin, CA1 stratum radiatum interneurons, n=5) is on record as 41.6±16.2 pA. For the same molecule, in assay [2] (HFS after capsaicin 1 μM exposure (occlusion), n=10), the “EPSC amplitudes 15-20 minutes post-HFS” value is on record as 112.5±21.9 % of control values in capsaicin before HFS. In assay [3] (capsaicin 1 μM bath-applied, n=14), the “EPSC amplitudes after 10-15 minutes in capsaicin” value is on record as 73.3±4.6 % of pre-drug control values. In addition, the “capsaicin-evoked current in a CA1 neuron” value in assay [4] (capsaicin 3 μM bath-applied) is recorded as “induces inward current”. Also, the “effect on membrane potential of CA1 pyramidal neurons” value in assay [4] (capsaicin 3 μM bath-applied, current-clamp) was “significantly depolarized”. Further, in assay [5], the “average synaptic failures in capsaicin” value is 73.5±7.8%.

On to `Oc1cc2c(cc1O)CN(C(=S)NCCc1ccc(Cl)cc1)CCC2` [capsazepine], for which the “Peak capsaicin response in the presence of capsazepine in CA1 interneurons” value in assay [1] (capsaicin 3 μM, capsazepine 10 μM, P=0.06, n=5) is 0.4±0.2 pA. In assay [1] (setting [6]), the “Peak capsaicin response in the presence of capsazepine in CA1 pyramidal cells” value is listed as 0.1±0.1 pA and the “Peak capsaicin response in the presence of capsazepine in CA3 pyramidal cells” value was 0.1±0.1 pA. In addition, the “EPSC amplitudes 10-15 minutes after adding capsazepine” value in assay [2] (10 μM capsazepine added 10 minutes after HFS (LTD maintenance), n=6) was 50.1±6.1 % of pre-HFS values. Besides, the “EPSC amplitudes 15-20 minutes post-HFS with intracellular capsazepine” value in assay [2] (capsazepine 2 μM in patch pipette, P=0.20 vs control LTD, n=7) is on record as 47.5±10.3 % of control values before HFS. Moreover, the “EPSC amplitudes 15-20 minutes post-HFS in capsazepine” value in assay [2] (capsazepine 10 μM bath applied prior to HFS, n=9) is recorded as 105.6±8.6 % of control values before HFS. Also, the “EPSC amplitudes after 10-15 minutes in 1 μM capsaicin and in the presence of intracellular capsazepine” value in assay [3] (capsazepine 2 μM in patch pipette, capsaicin 1 μM bath, n=6) was 46.8±10.3 % of pre-capsaicin control values. Moreover, in assay [3] (capsazepine 10 μM, 12-(S)-HPETE 100 nM, n=6), the “EPSC amplitudes after 10-15 minutes in 12-(S)-HPETE and in the presence of capsazepine” value is on record as 103.0±8.9 % of pre-12-(S)-HPETE control values. Further, in assay [4] (2 μM intracellular capsazepine, capsaicin 3 μM, p<0.001), the “effect on capsaicin-induced depolarization of CA1 pyramidal neurons” value is listed as “prevented”. Besides, in assay [4] (capsaicin 3 μM plus capsazepine 10 μM), the “capsaicin-evoked current in the presence of capsazepine” value is reported as “does not induce current”. Moreover, in assay [4] (capsazepine 10 μM, 12-(S)-HPETE 100 nM), the “effect on 12-(S)-HPETE-evoked inward current” value is “blocked”.
